For data set [1], the system named is Tetranychus cinnabarinus. Briefly: Laboratory activity assay on Tetranychus cinnabarinus, leaf disc dipping method. The class given is in vivo. The following applies: foliar. The method, then:
(1) Laboratory activity assay of tenvermectin on Tetranychus cinnabarinus: the laboratory activity of tenvermectin was tested using Tetranychus cinnabarinus as the test pest, and using avermectin as the positive control. The activities were compared between tenvermectin and avermectin.
Test organism: Tetranychus cinnabarinus: it was inoculated to horsebean seedling and cultured under the conditions of artificial climate [(26±1)° C., RH (70±5)%, H/D14].
Test reagents: 96% (w/w) avermectin, 98% (w/w) tenvermectin (TEVA:TEVB=8:2): 1 g 96% avermectin and 98% tenvermectin were weighed and added to a beaker respectively, into which 93 g methanol and 6 g surfactant nonylphenol polyoxyethylene ether were added to give a preparation at a concentration of 10000 mg/L. The preparation was diluted with water into a series of concentrations: 0.005, 0.01, 0.025, and 0.05 mg/L for test.
Experiment method: leaf disc dipping method was employed: adult mites that were raised in laboratory with consistent physiological state were selected. The horsebean leaves with consistent growth condition were selected. 2 cm leaf-discs were prepared using a puncher. The leaf-disc was placed on absorbent cotton in the center of a plastic dish with the back of blade upwards. […] The number of adult mites was counted under a stereomicroscope 2 h later, and the number should not be less than 20 on each leaf disc in the dish. […]

Data set [2] deals with Bursaphelenchus xylophilus. In words: whole plant or invertebrate. How it is done:
Bursaphelenchus xylophilus is the pathogen of pine wilt disease, which results in the death of a great number of pines in the south of China. The laboratory activities of sixteen-membered macrolide compounds, including tenvermectin, avermectin, ivermectin, milbemycin, and emamectin benzoate etc, were tested using Bursaphelenchus xylophilus as the test pest, in order to compare the difference of activities among these reagents on Bursaphelenchus xylophilus.
Test reagents: 5 reagents, including 0.5% avermectin emulsifiable concentrate, 0.5% tenvermectin emulsifiable concentrate, 0.5% ivermectin emulsifiable concentrate, 2% milbemycin emulsifiable concentrate, and 2.5% emamectin benzoate microemulsion.
Experiment method: Dipping method was employed. For each reagent, 5 concentrations were tested, including 2, 5, 10, 20, and 50 mg/L. For each concentration, there were 3 repeats. The results were statistically analyzed at 24 h.

Data set [3] has as its system citrus spider mite. Briefly: Prevention and control effect on citrus spider mite in field. The data set is classed as in vivo, Panonychus citri McGregor. Also on record: Amount of mites: unit not given here. The method, then: Citrus spider mite (i.e., Panonychus citri McGregor) is one of the primary insect pests for citrus. It has properties, such as small body, fast propagation and multiple generations, which will cause severe damage to citrus. Tenvermectin was prepared as 2% water dispersible granules for the test of prevention and control of citrus spider mite, so as to determine its effect in field.
Test reagents: 2% tenvermectin water dispersible granules (tenvermectin, ethanol and alkylphenol polyoxyethylene ether-formaldehyde condensate in a mass ratio of […]), and 2% avermectin emulsifiable concentrate
Experiment time: in early May, at the young fruit stage of citrus.
Experiment design: the reagents were diluted 2000-, 4000- and 8000-fold, to concentrations of 10 mg/L, 5 mg/L and 2.5 mg/L, respectively. For each concentration, there were 3 repeats. 10 citrus trees were comprised in one small area that was randomly arranged. Water was used as the control, in which 10 citrus trees were tested. 50 kg of reagent was sprayed for each concentration. The reagent was administrated on a sunny day with no rain in following 24 h.
Data analysis: in each small area, 5 trees were examined. For each tree, 2 branches, each located in the east, the south, the west, the north and the center of the tree, were investigated. For each branch, the amount of live mites was counted for total 5 leaves. The amount of live mites was counted before administration and on day 3, 5, 7 and 14 after administration respectively, to calculate the reduction rate of the mite population. The prevention and control effect in field was determined based on the result.

The test system of data set [4] is Bursaphelenchus xylophilus. Briefly: Activity of tenvermectin A/B of different ratios on Bursaphelenchus xylophilus. The class given is in vivo. To be noted: for LC50: in vivo.
Method: The activity of the mixture of tenvermectin A and tenvermectin B with different ratios was tested using Bursaphelenchus xylophilus as the test pest, in order to provide reference for modification and fermentation process of tenvermectin-producing bacteria.
Where [5] appears, read: Bursaphelenchus xylophilus, 24 h, read-out: Mortality at different concentrations.
Setting [6] is: 2.5 mg/L, 3 d after administration, field spray.
The mark [7] stands for this setting: 2.5 mg/L, 5 d after administration.
Where [8] appears, read: 2.5 mg/L, 7 d after administration.
The mark [9] stands for this setting: 2.5 mg/L, 14 d after administration.
The mark [10] stands for this setting: 5.0 mg/L, 3 d after administration.
The mark [11] stands for this setting: 5.0 mg/L, 5 d after administration.
Where [12] appears, read: 5.0 mg/L, 7 d after administration.
Where [13] appears, read: 5.0 mg/L, 14 d after administration.
Where [14] appears, read: 10.0 mg/L, 3 d after administration.
Where [15] appears, read: 10.0 mg/L, 5 d after administration.
The mark [16] stands for this setting: 10.0 mg/L, 7 d after administration.
Where [17] appears, read: 10.0 mg/L, 14 d after administration.
The mark [18] stands for this setting: 2 mg/L, 24 h, dipping, reagents applied as emulsifiable concentrate/microemulsion.

≈ marks a conversion by molar mass, not a printed value. Like-named read-outs stand apart in the source and are kept apart here.

The LC50 is the concentration that kills 50% of the test population. With `CC[C@H](C)[C@H]1O[C@]2(C=C[C@@H]1C)C[C@@H]1C[C@@H](C/C=C(\C)[C@@H](O[C@H]3C[C@H](OC)[C@@H](O[C@H]4C[C@H](OC)[C@@H](O)[C@H](C)O4)[C@H](C)O3)[C@@H](C)/C=C/C=C3\CO[C@@H]4[C@H](O)C(C)=C[C@@H](C(=O)O1)[C@]34O)O2` [avermectin], the LC50 in data set [1] (24 h) turned out to be 0.0083 µg/mL (≈ 9.51 nM); in data set [1] (read-out: LC50 on Tetranychus cinnabarinus), 0.0083 µg/mL (≈ 9.51 nM); in data set [2] (Bursaphelenchus xylophilus, 24 h), 5.35 µg/mL (≈ 6130 nM). Also, in data set [2] (setting [5]), the mortality at 2 µg/mL amounted to 43.2%. In data set [2] (setting [5]), the mortality at 5 µg/mL turned out to be 46.1%. Further, the mortality at 10 µg/mL in data set [2] (setting [5]) was found to be 63.1%. For the same compound, in data set [2] (setting [5]), the mortality at 20 µg/mL worked out at 66.9%. Besides, the mortality at 50 µg/mL in data set [2] (setting [5]) came to 78%. Besides, the Amount of mites was 2.0 in data set [3] (setting [6]); 1.5 in data set [3] (setting [7]); 1.8 in data set [3] (setting [8]); 1.9 in data set [3] (setting [9]); 0.4 in data set [3] (setting [10]); 1.0 in data set [3] (setting [11]). Further, the Amount of mites in data set [3] (setting [12]) is listed as 1.3; in data set [3] (setting [13]), 1.4; in data set [3] (setting [14]), 1.4; in data set [3] (setting [15]), 1.1; in data set [3] (setting [16]), 0.7; in data set [3] (setting [17]), 5.3. Also, the Effect in data set [3] (setting [6]) amounted to 80.5c; in data set [3] (setting [7]), 86.7b; in data set [3] (setting [8]), 87.3c; in data set [3] (setting [9]), 80.1b; in data set [3] (setting [10]) it was 91.2ab; in data set [3] (setting [11]) it was 87.3b. Besides, the Effect in data set [3] (setting [12]) came out at 88.1c; in data set [3] (setting [13]), 80.4b; in data set [3] (setting [14]), 81.6c; in data set [3] (setting [15]), 90.6b; in data set [3] (setting [16]) it was 95.5c; in data set [3] (setting [17]), 83.0b.
As for emamectin benzoate, the “Mortality at different concentrations” value turned out to be 48.27% in data set [2] (setting [18]); 61.68% in data set [2] (5 mg/L, 24 h, dipping); 67.44% in data set [2] (10 mg/L, 24 h, dipping); 75% in data set [2] (20 mg/L, 24 h, dipping); 86.67% in data set [2] (50 mg/L, 24 h, dipping). The LC50 in data set [2] (24 h, dipping) stood at 2.8055 µg/mL.
Take ivermectin: the “Mortality at different concentrations” value in data set [2] (setting [18]) came to 18.52%; in data set [2] (5 mg/L, 24 h, dipping), 42.55%; in data set [2] (10 mg/L, 24 h, dipping) it was 57.47%; in data set [2] (20 mg/L, 24 h, dipping), 58.33%; in data set [2] (50 mg/L, 24 h, dipping), 78.94%. The compound further registered an LC50 in data set [2] (24 h, dipping) of 11.0629 µg/mL.
Consider milbemycin, for which the LC50 in data set [2] (in vivo) was found to be 5.0123 µg/mL.
On to tenvermectin A, for which, in data set [4], the LC50 came to 6.592 µg/mL.
As for tenvermectin B, the LC50 in data set [4] came out at 3.4816 µg/mL. In addition, in data set [4] (in words), the “relative activity of tenvermectin A/B ratios on Bursaphelenchus xylophilus” value is reported as “higher than that of tenvermectin A”.

These data come from patent US10028507B2, “Sixteen-membered macrolide compound and applications thereof” (Zhejiang Hisun Pharmaceutical Co., Ltd., priority 2014, dated 2018).
